Reference: patent US20250049785A1, “METHODS FOR THE TREATMENT OF GLIOBLASTOMA THAT MINIMIZE RADIATION DAMAGE IN SUSCEPTIBLE PATIENTS” (Rhode Island Hospital, priority 2021, published 2025)

Tests used:
[1] = tested on: IDH-1 wild-type glioblastoma; assay: Case presentation: elderly glioblastoma patient treated with involved-field radiotherapy and concomitant daily TMZ; type: in vivo, human
Description: A right-handed person had developed confusion, word-finding difficulty and slurred speech. These symptoms included making phone calls to their spouse and asking their non-sensible questions. They lost their words intermittently and forgot names of their family members on a number of occasions. They recounted old stories as if they were perseverating and answered questions in the affirmative without actually hearing the question. Their mood also became more irritable. Their past medical history was notable for a skull fracture after fall from horseback riding when they were a teenager. The patient had undergone a neurocognitive evaluation from a memory disorder clinic in a major academic medical center and they had been diagnosed with a non-specific memory disorder.
The patient underwent a gross total resection of the mass 4 days after the MRI. […] Immunohistochemical staining was negative for IDH-1 R132H mutation but positive for ATRX, GFAP, Olig-2 and p53.
The radiation administered consisted of standard external beam radiotherapy. The left temporal postsurgical cavity as well as the ipsilateral putamen and globus pallidus were included in the maximum 6,000 cGy isodose line (see FIG. 2). The brainstem was covered in the 3,000 cGy isodose line while the contralateral putamen and globus pallidus received up to 1,800 cGy of radiation.
They became more forgetful and developed imbalance. […]

[2] = bilateral hippocampal sparing whole brain radiation with memantine; cited from earlier work

| SMILES | cognitive status after treatment ([1]; after radiation (up to 6,000 cGy) and TMZ, patient with diffuse Lewy body disease at autopsy) | haematological toxicity limiting chemotherapy ([1]; person, concomitant daily TMZ with involved-field radiotherapy, only two weeks of chemotherapy administered) | neurocognitive function versus traditional fractionated whole brain radiotherapy [2] |
| --- | --- | --- | --- |
| Cn1nnc2c(C(N)=O)ncn2c1=O [TMZ, temozolomide] | rapidly deteriorated | low blood counts |  |
| CC12CC3CC(C)(C1)CC(N)(C3)C2 [memantine] |  |  | preserves neurocognitive function better |
